According to BindingDB's records for doi:10.1111/cbdd.12375 (Ferdowsi University of Mashhad, 2015):

Biological target: T1, Seed linoleate 13S-lipoxygenase-1 (Glycine max, UniProt P08170)
T1 sequence (P08170 whole entry): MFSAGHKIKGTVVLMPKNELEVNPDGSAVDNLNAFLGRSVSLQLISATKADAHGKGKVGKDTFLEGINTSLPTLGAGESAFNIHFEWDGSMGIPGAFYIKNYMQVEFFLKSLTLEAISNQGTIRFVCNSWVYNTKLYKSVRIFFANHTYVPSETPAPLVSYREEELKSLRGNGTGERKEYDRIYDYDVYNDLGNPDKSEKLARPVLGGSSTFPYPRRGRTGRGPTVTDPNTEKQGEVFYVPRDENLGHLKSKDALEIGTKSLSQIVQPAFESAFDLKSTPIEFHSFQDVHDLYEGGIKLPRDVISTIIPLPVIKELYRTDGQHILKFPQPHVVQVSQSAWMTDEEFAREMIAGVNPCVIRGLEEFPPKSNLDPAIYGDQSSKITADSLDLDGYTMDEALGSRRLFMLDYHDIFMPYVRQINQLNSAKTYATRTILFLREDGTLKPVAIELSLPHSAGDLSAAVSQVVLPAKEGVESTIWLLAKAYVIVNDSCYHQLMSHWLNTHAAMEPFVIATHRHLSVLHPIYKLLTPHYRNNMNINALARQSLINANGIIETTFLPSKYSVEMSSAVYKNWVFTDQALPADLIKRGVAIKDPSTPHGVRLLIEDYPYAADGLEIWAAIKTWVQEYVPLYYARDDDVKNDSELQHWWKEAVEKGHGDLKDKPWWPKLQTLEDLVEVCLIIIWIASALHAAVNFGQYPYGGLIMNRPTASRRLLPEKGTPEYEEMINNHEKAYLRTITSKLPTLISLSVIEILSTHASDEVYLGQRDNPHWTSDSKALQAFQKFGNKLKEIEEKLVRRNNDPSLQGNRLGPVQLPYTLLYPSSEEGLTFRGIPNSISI
Assay: 15LO Inhibition Assay
Conditions: pH 7; 25 °C
Protocol: Linoleic acid and two assay solutions (A and B) were prepared in advance. Solution A was 50 mM 3-(dimethylamino)benzoic acid (DMAB) in a 100 mM phosphate buffer (pH 7.0). Solution B was a mixture of 10 mM 3-methyl-2-benzothiazolinone (MBTH) 3 mL, hemoglobin (5 mg/mL, 3 mL) in 50 mM phosphate buffer at pH 5.0 (25 mL). A linoleic acid solution was prepared by mixing 5 mg of linoleic acid with 50 mg Tween-20 in 3 mL water and then diluting with KOH 100 mM to a final volume of 5 mL. In the standard assay, the sample in ethanol ([…]), soybean 15-lipo-oxygenase (SLO) (4000 units/mL in 50 mM phosphate buffer pH 7.0; […]) and phosphate buffer pH 7.0 (50 mM; […]) were mixed in a test-tube, and preincubation was carried out for 5 min at room temperature. A control test was done with the same volume of ethanol. After the preincubation, linoleic acid solution […] was added to start the peroxidation reaction, and 7 min later,solution A […] and then solution B […] was added to

Row | IC50 [µM] | Structure (SMILES)
1 | 12 | CCN1CCN(c2nc(C)c(Br)c(Sc3nnc(Sc4nc(N5CCN(CC)CC5)nc(C)c4Br)n3N)n2)CC1 [3,5-bis((5-bromo-6-methyl-2-(4-ethylpiperazin-1-yl)pyrimidin-4-yl)thio)-4H-1,2,4-triazol-4-amine (4f)]
2 | > 500 | Cc1nc(N2CCC(C)CC2)nc(Sc2nnc(Sc3nc(N4CCC(C)CC4)nc(C)c3Br)n2N)c1Br [3,5-bis((5-bromo-6-methyl-2-(4-methylpiperidin-1-yl)pyrimidin-4-yl)thio)-4H-1,2,4-triazol-4-amine (4c)]
3 | > 500 | Cc1nc(N2CCN(c3ccccc3)CC2)nc(Sc2nnc(Sc3nc(N4CCN(c5ccccc5)CC4)nc(C)c3Br)n2N)c1Br [3,5-bis((5-bromo-6-methyl-2-(4-phenylpiperazin-1-yl)pyrimidin-4-yl)thio)-4H-1,2,4-triazol-4-amine (4e)]
4 | > 500 | Cc1nc(N2CCOCC2)nc(Sc2nnc(Sc3nc(N4CCOCC4)nc(C)c3Br)n2N)c1Br [3,5-bis((5-bromo-6-methyl-2-morpholinopyrimidin-4-yl)thio)-4H-1,2,4-triazol-4-amine (4a)]
5 | > 500 | Cc1nc(N2CCCC2)nc(Sc2nnc(Sc3nc(N4CCCC4)nc(C)c3Br)n2N)c1Br [3,5-bis((5-bromo-6-methyl-2-(pyrrolidin-1-yl)pyrimidin-4-yl)thio)-4H-1,2,4-triazol-4-amine (4g)]
6 | 9 | Cc1nc(N2CCN(C)CC2)nc(Sc2nnc(Sc3nc(N4CCN(C)CC4)nc(C)c3Br)n2N)c1Br [3,5-bis((5-bromo-6-methyl-2-(4-methylpiperazin-1-yl)pyrimidin-4-yl)thio)-4H-1,2,4-triazol-4-amine (4d)]
7 | > 500 | Cc1nc(N2CCCCC2)nc(Sc2nnc(Sc3nc(N4CCCCC4)nc(C)c3Br)n2N)c1Br [3,5-bis((5-bromo-6-methyl-2-(piperidin-1-yl)pyrimidin-4-yl)thio)-4H-1,2,4-triazol-4-amine (4b)]
